The values below come from article PMC7920280, “The Multi-Targeting Ligand ST-2223 with Histamine H3 Receptor and Dopamine D2/D3 Receptor Antagonist Properties Mitigates Autism-Like Repetitive Behaviors and Brain Oxidative Stress in Mice” (International Journal of Molecular Sciences, 2021).

Holding throughout (format): in vivo
Experiment [1] deals with malondialdehyde (MDA). As to the kind of experiment: Malondialdehyde (MDA) assay in brain parts of treated BTBR mice. Particulars: i.p., ST-2223 5 mg/kg, RAM 10 mg/kg, ARP 1 mg/kg, MEM 5 mg/kg, mean ± SEM; for MDA, Striatum: n = 3-6, BTBR vehicle 52.7 ± 3.4; for MDA, Hippocampus: n = 3-6, BTBR vehicle 53.8 ± 2.9; for MDA, Cerebellum: n = 3-6, BTBR vehicle 54.0 ± 6.4; for MDA, Prefrontal Cortex: n = 3-6, BTBR vehicle 58.3 ± 1.8. The method, then: (§1) At the end of the behavioral assessments, the animals were sacrificed following previously published protocols. Animals were anesthetized with pentobarbital (40 mg/kg, body weight, i.p.), sacrificed, and perfused via intracardial infusion to wash out the blood, using 1× PBS (0.01 M phosphate buffer, 0.0027 M potassium chloride and 0.137 M sodium chloride) at pH 7.4. […] The brains were then quickly removed and placed on an ice plate. The cerebellum, hippocampus, prefrontal and striatum were excised from the brain and snap-frozen in liquid nitrogen for further use in biochemical assessments. On the day of the biochemical tests, the tissues were homogenized using radioimmunoprecipitation assay (RIPA) buffer (50 mM Tris HCl, pH 7.4, 140 mM NaCl, 1 mM EDTA, 0.5% Triton X-100 and 0.5% sodium deoxycholate) supplemented with protease and phosphatase inhibitors. Then, the homogenates were centrifuged at 14,000 rpm for 30 min (4 °C), and the supernatant was used for evaluation of lipid peroxidation, glutathione, and antioxidant enzymes using spectrophotometric measurements and enzyme-linked immunosorbent assays (ELISA)..
This assay was performed to estimate the amount of lipid peroxidation in experimental animals using an MDA detection kit following the manufacturer’s instructions, as previously described in our laboratories. Briefly, 250 μL of sample or calibrator was incubated with thiobarbituric acid, followed by rigorous vortexing. After 1 h incubation at 60 °C, the mixture was centrifuged at 10,000× g for 2–3 min and the reaction mixture was transferred to a cuvette. Spectra were measured at 532 nm and the results are expressed as µM MDA/mg protein.

Experiment [2] deals with BTBR and B6 mice. As to the kind of experiment: Self-grooming paradigm (SGP). Particulars: for time spent self-grooming vs vehicle-treated B6 mice / time spent self-grooming vs vehicle-treated BTBR mice: i.p., MEM 5 mg/kg, ARP 1 mg/kg; for time spent self-grooming vs vehicle-treated B6 mice: ST-2223 2.5, 5 and 10 mg/kg; for time spent self-grooming vs vehicle-treated BTBR mice: ST-2223 5 and 10 mg/kg. The procedure:
The drugs tested included ST-2223 [N-(4-(4-(2-methoxyphenyl)piperazin-1-yl)butyl)-6-(3-(piperidin-1-yl)propoxy)-2-naphthamide] that was designed and synthesized in the Institute of Pharmaceutical and Medicinal Chemistry, Heinrich Heine University Düsseldorf, Germany, and in accordance with previously described methodologies (Supplementary Materials). Aripiprazole (ARP) (1 mg/kg, i.p.) and memantine (MEM, 5 mg/kg, i.p.), as reference drugs, were purchased from Sigma-Aldrich (St. Louis, MO, USA). The CNS-penetrant H3R agonist (R)-α-methylhistamine (RAM, 10 mg/kg, i.p.) was purchased from Sigma-Aldrich, St. Louis, MO, USA. T. Protease and the phosphatase inhibitor cocktail were procured from Thermo Scientific, USA. The assay kit for reduced glutathione (GSH) was obtained from Sigma-Aldrich (St. Louis, MO, USA). The lipid peroxidation assay kit for estimation of malondialdehyde (MDA) was purchased from North West Life Science (Vancouver, WA, USA). The assay kits for superoxide dismutase (SOD) and catalase (CAT) were purchased from Cayman Chemical (Ann Arbor, MI, USA). The drugs were prepared daily using 1% dimethyl sulfoxide (DMSO) in 0.9% saline, for intraperitoneal (i.p.) administration at a volume of 10 mL/kg of body weight. Vehicle treatment consisted of 1% DMSO in 0.9% normal saline. All drugs were i.p. administered 30 min before the behavioral test. The doses of these drugs were chosen based on previous reports. Neurobehavioral assessment was performed blindly with respect to experimental group and drug administration.
In the SGP test, mice were scored for spontaneous grooming behaviors. […] To measure SGP, each mouse was placed individually in a standard clear plastic cage (28 cm wide × 17 cm long × 12 cm high) for a total of 20 min. Mice were allowed to freely explore the cage for the entire test, the first 10 min served as a habituation period. After 10 min habituation, each mouse was scored with a stopwatch for 10 min for cumulative time spent grooming all body regions. Grooming behavior included head washing, body grooming, genital/tail grooming and paw and leg licking. The observer sat approximately 1 m from the test cage during the second 10 min of testing.

The test system of experiment [3] is catalase (CAT). As to the kind of experiment: Catalase (CAT) activity in brain parts of treated BTBR mice. The settings on record: i.p., ST-2223 5 mg/kg, RAM 10 mg/kg, ARP 1 mg/kg, MEM 5 mg/kg, mean ± SEM; for CAT, Prefrontal Cortex: n = 3-6, BTBR vehicle 80.1 ± 14.9; for CAT, Striatum: n = 3-6, BTBR vehicle 104.6 ± 2.28; for CAT, Hippocampus: n = 3-6, BTBR vehicle 111.4 ± 4.8; for CAT, Cerebellum: n = 3-6, BTBR vehicle 130. 7 ± 3.3. The method, then: as §1
(§2) To assess the activity of antioxidant enzymes Superoxide dismutase (SOD) and Catalase (CAT), commercially available kits were used, following the manufacturer’s instructions, and as previously reported. Cayman assay kits (Cayman Chemicals Company, Ann Arbor, MI, USA) were used to assess antioxidant enzyme (superoxide dismutase (SOD) and catalase (CAT)) activities in experimental animals. Catalase assay: Twenty microliters of samples or standards and 30 μL of methanol was added to the assay buffer (100 μL) in 96-well plates. To this mixture, twenty microliter of hydrogen peroxide was added and incubated for 20 min at room temperature (RT) to initiate the reaction. Following incubation, 30 μL of potassium hydroxide was used to terminate the reaction, followed by subsequent addition of catalase purpald (30 μL) and catalase potassium periodate (10 μL). The plate was incubated for 5 min at room temperature in a shaker and the plate was read at 540 nm using a microplate reader. Catalase activity was expressed as nmol/min/mg protein. Superoxide dismutase assay: ten microliters of sample or standard was added in 96-well plates. Twenty microliters of xanthine oxidase were added to initiate the reaction. The reaction mixture was mixed for few seconds and incubated (covered) for 30 min at room temperature (RT). Absorbance was read at 450 nm using microplate reader. The activity of SOD was expressed as units/mg protein.

Experiment [4] concerns superoxide dismutase (SOD). As to the kind of experiment: Superoxide dismutase (SOD) activity in brain parts of treated BTBR mice. Particulars: i.p., ST-2223 5 mg/kg, RAM 10 mg/kg, ARP 1 mg/kg, MEM 5 mg/kg, mean ± SEM; for SOD, Prefrontal Cortex: n = 3-6, BTBR vehicle 45.1 ± 2.8; for SOD, Hippocampus: n = 3-6, BTBR vehicle 49.5 ± 0.5; for SOD, Cerebellum: n = 3-6, BTBR vehicle 49.7 ± 1.3; for SOD, Striatum: n = 3-6, BTBR vehicle 51.8 ± 1.2. The procedure:
as §1, §2

With `O=C1CCc2ccc(OCCCCN3CCN(c4cccc(Cl)c4Cl)CC3)cc2N1` [ARP, aripiprazole], in experiment [1], the “MDA, Striatum” value came out at 41.2 ± 1.4 µM MDA/mg protein; the “MDA, Hippocampus” value is 32.9 ± 4.1 µM MDA/mg protein; the “MDA, Cerebellum” value stood at 36.8 ± 1.8 µM MDA/mg protein; the “MDA, Prefrontal Cortex” value came out at 43.0 ± 2.5 µM MDA/mg protein. Further, the “time spent self-grooming vs vehicle-treated B6 mice” value in experiment [2] was “did not alter”. Further, in experiment [3], the “CAT, Prefrontal Cortex” value is on record as 96.2 ± 1.3 nmol/min/mg protein; the “CAT, Striatum” value is given as 120.5 ± 10.1 nmol/min/mg protein; the “CAT, Hippocampus” value came out at 118.3 ± 6.5 nmol/min/mg protein; the “CAT, Cerebellum” value came to 159.2 ± 5.1 nmol/min/mg protein. In experiment [4], the “SOD, Prefrontal Cortex” value worked out at 54.0 ± 5.2 units/mg protein; the “SOD, Hippocampus” value worked out at 51.8 ± 2.0 units/mg protein; the “SOD, Cerebellum” value turned out to be 56.4 ± 1.1 units/mg protein; the “SOD, Striatum” value is reported as 65.7 ± 7.7 units/mg protein.

In the case of `CC12CC3CC(C)(C1)CC(N)(C3)C2` [MEM, memantine], in experiment [1], the “MDA, Striatum” value worked out at 32.6 ± 4.1 µM MDA/mg protein; the “MDA, Hippocampus” value worked out at 32.8 ± 3.4 µM MDA/mg protein; the “MDA, Cerebellum” value came out at 26.7 ± 3.6 µM MDA/mg protein; the “MDA, Prefrontal Cortex” value is on record as 40.0 ± 5.7 µM MDA/mg protein. Further, in experiment [2], the “time spent self-grooming vs vehicle-treated B6 mice” value is given as “significantly reduced”. In addition, in experiment [2] (BTBR mice), the “time spent self-grooming vs vehicle-treated BTBR mice” value was “significantly reduced”. In addition, in experiment [3], the “CAT, Prefrontal Cortex” value was 94.1 ± 4.8 nmol/min/mg protein; the “CAT, Striatum” value is 108.1 ± 3.4 nmol/min/mg protein; the “CAT, Hippocampus” value turned out to be 114.3 ± 11.2 nmol/min/mg protein; the “CAT, Cerebellum” value amounted to 132.3 ± 4.5 nmol/min/mg protein. Also, in experiment [4], the “SOD, Prefrontal Cortex” value is 44.9 ± 2.2 units/mg protein; the “SOD, Hippocampus” value was 41.4 ± 3.4 units/mg protein; the “SOD, Cerebellum” value turned out to be 64.4 ± 3.1 units/mg protein; the “SOD, Striatum” value is 66.47 ± 4.4 units/mg protein.

For `COc1ccccc1N1CCN(CCCCNC(=O)c2ccc3cc(OCCCN4CCCCC4)ccc3c2)CC1` [ST-2223, N-(4-(4-(2-methoxyphenyl)piperazin-1-yl)butyl)-6-(3-(piperidin-1-yl)propoxy)-2-naphthamide], in experiment [1], the “MDA, Striatum” value came out at 34.5 ± 5.5 µM MDA/mg protein; the “MDA, Hippocampus” value stood at 38.1 ± 3.1 µM MDA/mg protein; the “MDA, Cerebellum” value is 35.2 ± 1.8 µM MDA/mg protein; the “MDA, Prefrontal Cortex” value was found to be 39.1 ± 3.2 µM MDA/mg protein. In experiment [2], the “time spent self-grooming vs vehicle-treated B6 mice” value was “did not alter”. The “self-grooming behavior vs vehicle-treated BTBR mice” value in experiment [2] (BTBR mice, ST-2223 2.5 mg/kg i.p.) is on record as “failed to significantly mitigate”. For the same compound, the “time spent self-grooming vs vehicle-treated BTBR mice” value in experiment [2] (BTBR mice) was “significantly, and dose-dependently, decreased”. For the same compound, in experiment [3], the “CAT, Prefrontal Cortex” value was 116.8 ± 5.3 nmol/min/mg protein; the “CAT, Striatum” value was 119.1 ± 3.7 nmol/min/mg protein; the “CAT, Hippocampus” value came to 173.0 ± 1.9 nmol/min/mg protein; the “CAT, Cerebellum” value is reported as 120.6 ± 8.8 nmol/min/mg protein. Moreover, in experiment [4], the “SOD, Prefrontal Cortex” value is 43.2 ± 3.4 units/mg protein; the “SOD, Hippocampus” value was 48.1 ± 4.2 units/mg protein; the “SOD, Cerebellum” value worked out at 64.3 ± 1.0 units/mg protein; the “SOD, Striatum” value amounted to 51.2 ± 7.7 units/mg protein.
